In patent US20090035353A1 (priority 2001, published 2009):

Columns and labels:
Assay type in all cases: cell-based, Staphylococcus aureus
[1] = tested on: production of TSST-1 by S. aureus (MN8)
[2] = tested on: TSST-1 production by S. aureus FRI-1169
[3] = tested on: TSST-1 production by S. aureus FRI-1187

Oc1c(Cl)cc(Cl)c(Cl)c1Cc1c(O)c(Cl)cc(Cl)c1Cl [Hexachlorophene, hexachlorophene]
ELISA: TSST-1 ng/OD unit [1]: 330
TSST-1 produced when compared to the control [1]: significantly less TSST-1

4-hydroxydiphenyl methane [4-Hydroxydiphenyl-methane]
ELISA: TSST-1 ng/OD unit [1]: 785

Oc1cc(Cl)ccc1Oc1ccc(Cl)cc1Cl [Triclosan, triclosan]
ELISA: TSST-1 ng/OD unit [1]: 129
TSST-1 produced when compared to the control [1]: significantly less TSST-1
ELISA: TSST-1 ng/OD unit [2]: 40
TSST-1 produced when compared to the control [2]: less TSST-1
ELISA: TSST-1 ng/OD unit [3]: 95
TSST-1 produced when compared to the control [3]: less TSST-1
